Assay results reported in ChEMBL document CHEMBL1126482, “Novel Y2-selective, reduced-size agonists of neuropeptide Y” (Bioorg Med Chem Lett, 1993).
Square brackets hold non-standard residues; d marks the D form. Peptide text beside a SMILES is read from it. Cha = N[C@@H](CC1CCCCC1)C(=O)O

Experiments:
[1] = biological target: T1, Neuropeptide Y receptor type 1 (Homo sapiens, UniProt P25929); assay: Compound was evaluated for its inhibitory activity against human neuropeptide Y1 receptor expressing SK-N-MC cells; type: cell-based
T1 sequence (P25929 whole entry): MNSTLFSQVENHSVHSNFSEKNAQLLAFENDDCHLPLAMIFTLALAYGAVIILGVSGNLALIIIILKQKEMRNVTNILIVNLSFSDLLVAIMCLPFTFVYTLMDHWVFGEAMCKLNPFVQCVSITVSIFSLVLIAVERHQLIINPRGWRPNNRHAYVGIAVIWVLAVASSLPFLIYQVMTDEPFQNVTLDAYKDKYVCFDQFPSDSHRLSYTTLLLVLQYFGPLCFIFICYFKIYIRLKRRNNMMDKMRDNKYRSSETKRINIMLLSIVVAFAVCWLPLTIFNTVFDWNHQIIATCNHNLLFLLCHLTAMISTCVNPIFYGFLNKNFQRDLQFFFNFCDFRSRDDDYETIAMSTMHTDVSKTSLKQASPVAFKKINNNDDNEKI

Rattus norvegicus = species on record: Rattus norvegicus; assay: Compound was evaluated for its ability to inhibit electrically evoked rat vas deferens contractions; type: functional
[2] = biological target: T2, Neuropeptide Y receptor type 2 (Homo sapiens, UniProt P49146); assay: Compound was evaluated for its inhibitory activity against human neuropeptide Y2 receptor expressing LN319 cells; type: cell-based
T2 sequence (P49146 whole entry): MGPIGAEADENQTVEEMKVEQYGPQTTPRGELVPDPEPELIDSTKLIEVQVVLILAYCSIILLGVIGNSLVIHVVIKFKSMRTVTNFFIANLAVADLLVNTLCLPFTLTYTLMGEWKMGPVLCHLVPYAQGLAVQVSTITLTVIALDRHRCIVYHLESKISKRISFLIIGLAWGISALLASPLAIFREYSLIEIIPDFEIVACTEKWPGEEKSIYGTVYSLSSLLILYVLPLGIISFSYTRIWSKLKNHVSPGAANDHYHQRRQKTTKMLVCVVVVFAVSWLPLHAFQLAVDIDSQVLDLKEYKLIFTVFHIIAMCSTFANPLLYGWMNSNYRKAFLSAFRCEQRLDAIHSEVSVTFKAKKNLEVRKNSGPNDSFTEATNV

IC50 [1] [nM]	IC50 (Rattus norvegicus) [nM]	IC50 ([1]; sk-n-mc) [nM]	IC50 [2] [nM]	Compound
35000	4500	–	–	Ac-RHYINLITRQRY-OH
–	–	39	5	CC[C@H](C)[C@H](NC(=O)[C@H](Cc1ccc(O)cc1)NC(=O)[C@H](Cc1c[nH]cn1)NC(=O)[C@H](CCCN=C(N)N)NC(C)=O)C(=O)N[C@@H](CC(N)=O)C(=O)N[C@@H](CC(C)C)C(=O)N[C@@H](CC1CCCCC1)C(=O)N[C@H](C(=O)N[C@@H](CCCN=C(N)N)C(=O)N[C@@H](CCC(N)=O)C(=O)N[C@@H](CCCN=C(N)N)C(=O)N[C@@H](Cc1ccc(O)cc1)C(=O)O)[C@@H](C)O (Ac-RHYINL[Cha]TRQRY-OH)
–	–	44000	8	CC[C@H](C)[C@H](NC(=O)[C@H](Cc1ccc(O)cc1)NC(=O)[C@H](Cc1c[nH]cn1)NC(=O)[C@H](CCCN=C(N)N)NC(C)=O)C(=O)N[C@@H](CC(N)=O)C(=O)N[C@@H](CC1CCCCC1)C(=O)N[C@H](C(=O)N[C@H](C(=O)N[C@@H](CCCN=C(N)N)C(=O)N[C@@H](CCC(N)=O)C(=O)N[C@@H](CCCN=C(N)N)C(=O)N[C@@H](Cc1ccc(O)cc1)C(=O)O)[C@@H](C)O)[C@@H](C)CC (Ac-RHYIN[Cha]ITRQRY-OH)
–	–	26000	3	CC[C@H](C)[C@H](NC(=O)[C@H](Cc1ccc(O)cc1)NC(=O)[C@H](Cc1c[nH]cn1)NC(=O)[C@H](CCCN=C(N)N)NC(C)=O)C(=O)N[C@@H](CC(N)=O)C(=O)N[C@@H](CC1CCCCC1)C(=O)N[C@@H](CC1CCCCC1)C(=O)N[C@H](C(=O)N[C@@H](CCCN=C(N)N)C(=O)N[C@@H](CCC(N)=O)C(=O)N[C@@H](CCCN=C(N)N)C(=O)N[C@@H](Cc1ccc(O)cc1)C(=O)O)[C@@H](C)O (Ac-RHYIN[Cha][Cha]TRQRY-OH)
